Assay results taken from publication PMC10815238, “New N-Terminal Fatty-Acid-Modified Melittin Analogs with Potent Biological Activity” (International Journal of Molecular Sciences, 2024).

Columns and labels:
[1] = Hydrophobicity assay (RP-HPLC retention time); format: physicochemical; conditions: chromatographic, ChromCore120 C18 column 4.6 x 250 mm 5 μm; 0.1 mg/mL in deionized water; A 0.1% TFA in water, B 0.1% TFA in acetonitrile; 5% B to 90% B over 30 min; 1 mL/min; UV 220 nm; three independent experiments
Text: The hydrophobicity, amphipathicity, and positive charge distribution of lipopeptides are crucial for their antimicrobial activities. Among these, hydrophobicity has been deemed essential for promoting a hydrophobic interaction with the lipid bilayer, leading to membrane disruption, cytoplasm leakage, and eventual cell death. Lipopeptides with different peptide sequences and chain lengths usually show different hydrophobicities, generating different RTs in the RP-HPLC analysis. The more hydrophobic the lipopeptide, the longer the RT on the column.
Each MDL was dissolved and diluted to 0.1 mg/mL in deionized water (obtained in-house) and then subjected to RP-HPLC on a ChromCore120 C18 column (4.6 × 250 mm, 5 μm) (NanoChrom, Suzhou, China) using 0.1% trifluoroacetic acid (TFA) (Macklin, Shanghai, China) in water as solvent A and 0.1% TFA in acetonitrile (Merck, Darmstadt, Germany) as solvent B. The elution gradient was as follows: 5% B to 90% B over 30 min, 90% B maintained for 2 min, and 90% B to 5% B over 1 min. The flow rate was 1 mL/min and measurements were taken at 220 nm. The retention time was recorded for each MDL.

[2] = CD measurements of secondary structure; format: physicochemical; conditions: 0.5 mg/mL, 25 °C
Method: The CD spectra of the MDLs were measured at 25 °C on a Chirascan spectrometer (Applied Photophysics, Surrey, UK) using a quartz cell with a 1.0 mm path length, recording from 180 to 260 nm. A scanning speed of 50 nm/min was used and the bandwidth was 1 nm. The optical path and slit width were 0.1 cm and 0.1 nm, respectively. […], 50% TFE (Macklin, Shanghai, China) was used to mimic the hydrophobic condition of the microbial membrane, and 25 mM SDS (Macklin, Shanghai, China) micelles were used to mimic the negatively charged prokaryotic membrane. The observed ellipticity was converted to molar ellipticity using the following equation: θ=θobs(MRW/10×c×l) where [θ] is the molar ellipticity (deg·cm^2·dmol^−1), θobs is the observed ellipticity corrected for the buffer at a given wavelength (mdeg), MRW is the mean residual molecular weight (molecular weight/number of amino acids), c is the peptide concentration (mg/mL), and l is the path length (cm). Assuming lipopeptides were a two-state model, the percentage in the α-helix structure of the MDLs was calculated using the following equation: α-helical content=−([θ]222 +2000)/30,000×100%

[3] = tested on: E. coli ATCC 25922; assay: Salt sensitivity (MIC in the presence of physiological salts); format: cell-based, Escherichia coli; set-up: key to MIC, NaCl / MIC, KCl / MIC, MgCl2: MIC in μg/mL (two-fold dilutions 256 to 0.25 μg/mL); conditions: for MIC, MgCl2: 1 mM MgCl2, unit not given in Table 4; for MIC, FeCl3: 4 mM FeCl3, unit not given in Table 4; for MIC, KCl: 4.5 mM KCl; for MIC, KCl / MIC, NaCl: unit not given in Table 4; for MIC, NaCl: 150 mM NaCl; for MIC, Control: no added salt, unit not given in Table 4 (Table 3 MIC in μg/mL)
Method: (§1) MIC was determined using the broth microdilution method with minor modification. In brief, bacteria (S. aureus ATCC 43300, E. faecalis ATCC 29212, E. coli ATCC 25922, P. aeruginosa ATCC 27853, L. monocytogenes CVCC 3764, B. cereus CVCC 4101, S. Castellani CGMCC 1.1869, and the multidrug-resistant E. coli strain) were cultured in nutrient broth (NB) medium (Macklin, Shanghai, China) to the logarithmic phase and diluted to 1 × 10^6 colony forming units (CFUs)/mL. The MDLs were dissolved to a final concentration of 256~0.25 μg/mL in NB medium using two-fold dilutions. A total of 50 μL of different concentrations of the MDL solutions and an equal volume of bacterial suspension were added to a 96-well plate, which was then incubated at 37 °C for 18 h. The minimum concentrations of the MDLs with no visible growth of bacteria were defined as the corresponding MICs. Media containing bacteria without the MDLs were set as the negative control. Each measurement was performed independently three times.
(§2) This was carried out in triplicate and tested at least twice.

[4] = tested on: S. aureus ATCC 43300; assay: as above; format: cell-based, Staphylococcus aureus; set-up: key: MIC in μg/mL (two-fold dilutions 256 to 0.25 μg/mL); conditions: for MIC, MgCl2: 1 mM MgCl2, unit not given in Table 4; for MIC, FeCl3: 4 mM FeCl3, unit not given in Table 4; for MIC, KCl: 4.5 mM KCl; for MIC, KCl / MIC, NaCl: unit not given in Table 4; for MIC, NaCl: 150 mM NaCl; for MIC, Control: no added salt, unit not given in Table 4 (Table 3 MIC in μg/mL)
Method: as §1, §2

| Structure (SMILES) | RT, Min (RP-HPLC retention time, measure of hydrophobicity) [1] [min] | α-Helix, % ([2]; 25 mM SDS) [%] | β-Fold, % ([2]; 25 mM SDS) [%] | α-Helix, % ([2]; 50% TFE) [%] | β-Fold, % ([2]; 50% TFE) [%] | α-Helix, % ([2]; PBS Buffer) [%] | β-Fold, % ([2]; PBS Buffer) [%] | MIC, MgCl2 [3] | MIC, FeCl3 [3] | MIC, KCl [3] | MIC, NaCl [3] | MIC, Control [3] | MIC, MgCl2 [4] | MIC, FeCl3 [4] | MIC, KCl [4] | MIC, NaCl [4] | MIC, Control [4] |
| --- | --- | --- | --- | --- | --- | --- | --- | --- | --- | --- | --- | --- | --- | --- | --- | --- | --- |
| CCCC(=O)NCC(=O)N[C@H](C(=O)NCC(=O)N[C@@H](C)C(=O)N[C@H](C(=O)N[C@@H](CC(C)C)C(=O)N[C@@H](CCCCN)C(=O)N[C@H](C(=O)N[C@@H](CC(C)C)C(=O)N[C@H](C(=O)N[C@H](C(=O)NCC(=O)N[C@@H](CC(C)C)C(=O)N1CCC[C@H]1C(=O)N[C@@H](C)C(=O)N[C@@H](CC(C)C)C(=O)N[C@H](C(=O)N[C@@H](CO)C(=O)N[C@@H](Cc1c[nH]c2ccccc12)C(=O)N[C@H](C(=O)N[C@@H](CCCCN)C(=O)N[C@@H](CCCNC(=N)N)C(=O)N[C@@H](CCCCN)C(=O)N[C@@H](CCCNC(=N)N)C(=O)N[C@@H](CCC(N)=O)C(=O)N[C@@H](CCC(N)=O)C(N)=O)[C@@H](C)CC)[C@@H](C)CC)[C@@H](C)O)[C@@H](C)O)C(C)C)C(C)C)[C@@H](C)CC [Peptide C4-Mel] | 13.704 ± 0.005 | 19.3 | 23.8 | 20.7 | 25.4 | 6.1 | 33.7 | 32 | 32 | 16 | 8 | 8 | 16 | 16 | 4 | 2 | 2 |
| CCCCCC(=O)NCC(=O)N[C@H](C(=O)NCC(=O)N[C@@H](C)C(=O)N[C@H](C(=O)N[C@@H](CC(C)C)C(=O)N[C@@H](CCCCN)C(=O)N[C@H](C(=O)N[C@@H](CC(C)C)C(=O)N[C@H](C(=O)N[C@H](C(=O)NCC(=O)N[C@@H](CC(C)C)C(=O)N1CCC[C@H]1C(=O)N[C@@H](C)C(=O)N[C@@H](CC(C)C)C(=O)N[C@H](C(=O)N[C@@H](CO)C(=O)N[C@@H](Cc1c[nH]c2ccccc12)C(=O)N[C@H](C(=O)N[C@@H](CCCCN)C(=O)N[C@@H](CCCNC(=N)N)C(=O)N[C@@H](CCCCN)C(=O)N[C@@H](CCCNC(=N)N)C(=O)N[C@@H](CCC(N)=O)C(=O)N[C@@H](CCC(N)=O)C(N)=O)[C@@H](C)CC)[C@@H](C)CC)[C@@H](C)O)[C@@H](C)O)C(C)C)C(C)C)[C@@H](C)CC [Peptide C6-Mel] | 15.567 ± 0.006 | 18.4 |  | 22.4 |  | 6.5 |  | 16 | 16 | 8 | 4 | 4 | 8 | 8 | 2 |  |  |
| CCCCCCCCCCCCCCCC(=O)NCC(=O)N[C@H](C(=O)NCC(=O)N[C@@H](C)C(=O)N[C@H](C(=O)N[C@@H](CC(C)C)C(=O)N[C@@H](CCCCN)C(=O)N[C@H](C(=O)N[C@@H](CC(C)C)C(=O)N[C@H](C(=O)N[C@H](C(=O)NCC(=O)N[C@@H](CC(C)C)C(=O)N1CCC[C@H]1C(=O)N[C@@H](C)C(=O)N[C@@H](CC(C)C)C(=O)N[C@H](C(=O)N[C@@H](CO)C(=O)N[C@@H](Cc1c[nH]c2ccccc12)C(=O)N[C@H](C(=O)N[C@@H](CCCCN)C(=O)N[C@@H](CCCNC(=N)N)C(=O)N[C@@H](CCCCN)C(=O)N[C@@H](CCCNC(=N)N)C(=O)N[C@@H](CCC(N)=O)C(=O)N[C@@H](CCC(N)=O)C(N)=O)[C@@H](C)CC)[C@@H](C)CC)[C@@H](C)O)[C@@H](C)O)C(C)C)C(C)C)[C@@H](C)CC [Peptide C16-Mel] | 26.892 ± 0.005 | 15.2 | 33 | 14.3 | 26.8 | 12.5 | 30.4 | >256 | >256 | 256 | >256 | 128 | >256 | >256 | 256 | 128 | 64 |
| CCCCCCCC(=O)NCC(=O)N[C@H](C(=O)NCC(=O)N[C@@H](C)C(=O)N[C@H](C(=O)N[C@@H](CC(C)C)C(=O)N[C@@H](CCCCN)C(=O)N[C@H](C(=O)N[C@@H](CC(C)C)C(=O)N[C@H](C(=O)N[C@H](C(=O)NCC(=O)N[C@@H](CC(C)C)C(=O)N1CCC[C@H]1C(=O)N[C@@H](C)C(=O)N[C@@H](CC(C)C)C(=O)N[C@H](C(=O)N[C@@H](CO)C(=O)N[C@@H](Cc1c[nH]c2ccccc12)C(=O)N[C@H](C(=O)N[C@@H](CCCCN)C(=O)N[C@@H](CCCNC(=N)N)C(=O)N[C@@H](CCCCN)C(=O)N[C@@H](CCCNC(=N)N)C(=O)N[C@@H](CCC(N)=O)C(=O)N[C@@H](CCC(N)=O)C(N)=O)[C@@H](C)CC)[C@@H](C)CC)[C@@H](C)O)[C@@H](C)O)C(C)C)C(C)C)[C@@H](C)CC [Peptide C8-Mel] | 17.845 ± 0.013 | 18.2 |  | 18.8 |  | 7 |  | 8 | 8 | 8 | 2 | 2 | 8 | 8 |  | 0.5 | 0.5 |
| CCCCCCCCCCCC(=O)NCC(=O)N[C@H](C(=O)NCC(=O)N[C@@H](C)C(=O)N[C@H](C(=O)N[C@@H](CC(C)C)C(=O)N[C@@H](CCCCN)C(=O)N[C@H](C(=O)N[C@@H](CC(C)C)C(=O)N[C@H](C(=O)N[C@H](C(=O)NCC(=O)N[C@@H](CC(C)C)C(=O)N1CCC[C@H]1C(=O)N[C@@H](C)C(=O)N[C@@H](CC(C)C)C(=O)N[C@H](C(=O)N[C@@H](CO)C(=O)N[C@@H](Cc1c[nH]c2ccccc12)C(=O)N[C@H](C(=O)N[C@@H](CCCCN)C(=O)N[C@@H](CCCNC(=N)N)C(=O)N[C@@H](CCCCN)C(=O)N[C@@H](CCCNC(=N)N)C(=O)N[C@@H](CCC(N)=O)C(=O)N[C@@H](CCC(N)=O)C(N)=O)[C@@H](C)CC)[C@@H](C)CC)[C@@H](C)O)[C@@H](C)O)C(C)C)C(C)C)[C@@H](C)CC [Peptide C12-Mel] | 23.344 ± 0.004 | 15.9 | 29.5 | 19 | 21.5 | 11.5 | 31.3 | 128 | 128 | 32 | 32 |  | 64 | 64 | 32 | 16 | 8 |
